Measured values: PubChem BioAssay (NCI)
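Tested at 5 concentrations; 48 h exposure; 96-well plates; endpoints linearly interpolated, else capped at highest concentration. At the GI50, growth is halved. TGI denotes the concentration required for complete inhibition of growth.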 Where a SMILES comes first, the peptide text is derived from it.

Key:
Assay in all cases: NCI tumour cell line growth inhibition, 48 h
SNB-78 CNS = test system: SNB-78 CNS
RXF-631 renal = test system: RXF-631 renal
XF 498 CNS = test system: XF 498 CNS
DMS 273 small cell lung = test system: DMS 273 small cell lung
LXFL 529 NSCLC = test system: LXFL 529 NSCLC
KM20L2 colon = test system: KM20L2 colon
HOP-18 NSCLC = test system: HOP-18 NSCLC
MDA-N = test system: MDA-N
P388/ADR leukemia = test system: P388/ADR leukemia
SN12K1 renal = test system: SN12K1 renal
P388 leukemia = test system: P388 leukemia

| Structure (SMILES) | TGI (SNB-78 CNS) [µM] | TGI (RXF-631 renal) [µM] | TGI (XF 498 CNS) [µM] | TGI (DMS 273 small cell lung) [µM] | TGI (LXFL 529 NSCLC) [µM] | TGI (KM20L2 colon) [µM] | TGI (HOP-18 NSCLC) [µM] | TGI (MDA-N) | further results |
| --- | --- | --- | --- | --- | --- | --- | --- | --- | --- |
| O=[N+]([O-])c1cc(Cl)ccc1OCc1ccccc1 | > 100 | > 100 | > 100 | > 100 | > 100 | – | – | – | – |
| CCC(C)C1NC(=O)C2CCCN2C(=O)CNC(=O)C(C)NC(=O)C(Cc2ccccc2)NC(=O)C(C(C)C)NC1=O (stereo not given) (cyclo(GPIVFA); configuration not given here) | – | > 100 | – | – | > 100 | > 100 | > 100 | – | – |
| O=[N+]([O-])c1ccccc1C=NC12CC3CC(CC(C3)C1)C2 | > 100 | > 100 | > 100 | > 100 | > 100 | > 100 | > 100 | – | – |
| CC12CO[C@@](C)(CC(S(=O)(=O)c3ccccc3)C1)O2 (stereo not given in full) | > 100 | – | – | > 100 | > 100 | > 100 | > 100 | – | – |
| COc1cc2c(cc1OC)NC(=O)NC(Cc1ccc3c(c1)OCO3)CC2 (stereo not given) | > 100 | – | > 100 | > 100 | > 100 | > 100 | – | – | – |
| COC(=O)C1C=NNC1C(=O)OC (stereo not given) | > 100 | > 100 | > 100 | > 100 | > 100 | > 100 | > 100 | – | – |
| O=c1c(Br)cc2c(-c3ccccc3)c3cc(Br)c(O)c(Br)c3oc-2c1Br | – | – | – | – | – | – | – | > 100 µM | – |
| CN[C@@H](C)[C@H](N)c1ccccc1 | > 100 | > 100 | – | > 100 | > 100 | – | > 100 | – | – |
| CCOC(=N)CC(=O)Nc1cccc(Cl)c1 | > 100 | > 100 | > 100 | > 100 | > 100 | > 100 | – | – | – |
| CC(=O)[CH-]C(=O)c1ccccc1.CC(=O)[CH-]C(=O)c1ccccc1.Cl.[O-]c1ccccn1.[O-]c1ccccn1.[Ti+4] | – | – | – | – | > 100 | > 100 | – | – | GI50 (KM20L2 colon): > 100 µM; GI50 (LXFL 529 NSCLC): > 100 µM |
| COc1ccc2c(c1)[n+]([O-])c(-c1ccc(C)cc1)c(N)[n+]2[O-] | > 100 | – | – | > 100 | > 100 | > 100 | > 100 | – | – |
| COc1c(-c2ccc(O)c(O)c2)oc2c(O)c(O)cc(O)c2c1=O | – | – | – | – | – | – | – | > 100 µM | – |
| C=C(CC(=O)O)C(=O)O (tested in a mixture with another compound) | – | – | – | – | – | – | – | > 50 µg/mL | GI50 (MDA-N): > 50 µg/mL |
| O=C(CC1(O)C(=O)Nc2ccccc21)c1ccc(O)cc1 (stereo not given) | > 100 | > 100 | – | > 100 | > 100 | > 100 | > 100 | – | – |
| CC1(C)C(=O)/C=C\C(=O)C(C)(C)C(=O)/C=C\C(=O)C(C)(C)C(=O)/C=C\C(=O)C(C)(C)C(=O)/C=C\C1=O | 50 | – | 51.4 | 37.4 | 21.3 | 83.2 | 40.6 | > 100 µM | – |
| C=C1C2CC(OC(C)=O)C3(C)C(c4ccoc4)OC(=O)[C@@H](O)[C@]13OC1C[C@H](OC(C)=O)C(C)(C)[C@H](CC(=O)OC)[C@]12C (stereo not given in full) | > 100 | > 100 | – | > 100 | > 100 | > 100 | > 100 | – | – |
| COc1cccc2c1C(=O)c1c(O)c3c(c(O)c1C2=O)C[C@@](O)(C(=O)CO)CC3OC1CC(O)C(O)C(C)O1 (stereo not given in full) | 9.41 | 21.2 | 1.24 | 0.4 | 9.26 | 6.28 | 6.06 | 1.98 µM | – |
| O=S1(=O)CCCS(=O)(=O)C(c2ccccc2)=C1c1ccccc1 | > 100 | > 100 | – | – | > 100 | 72.1 | > 100 | – | – |
| C/C(=N\NC(=S)N1CC2CCC(CC2)C1)c1cccc(C)n1 | – | – | – | – | – | – | – | 17.8 µM | – |
| Clc1ccc2nc(-c3ccccc3)nc(Cl)c2c1 | > 100 | > 100 | – | > 100 | > 100 | > 100 | – | – | – |

| Structure (SMILES) | TGI (SNB-78 CNS) [µM] | TGI (RXF-631 renal) [µM] | TGI (XF 498 CNS) [µM] | TGI (DMS 273 small cell lung) [µM] | TGI (LXFL 529 NSCLC) [µM] | TGI (KM20L2 colon) [µM] | TGI (HOP-18 NSCLC) [µM] | TGI (MDA-N) | further results |
| --- | --- | --- | --- | --- | --- | --- | --- | --- | --- |
| CCCCN(CCCC)CCC(O)c1cc2c(Cl)cc(Cl)cc2c2cc(C(F)(F)F)ccc12 (stereo not given) | – | – | – | – | – | – | – | 26 µM | – |
| CCOC(=O)c1oc2ccc([N+](=O)[O-])c3c2c1CCC3 | > 75 | > 100 | 41 | > 100 | > 100 | > 100 | > 100 | > 100 µM | – |
| COC(=O)N/N=C(/CCC(=O)Nc1ccc(C)c(C)c1)CC(=O)C(C)(C)C | – | – | > 100 | > 100 | > 100 | > 100 | > 100 | – | – |
| CC1C[C@]2(C[C@@H](C)C(=O)O2)O[C@@H]2CC3(C)[C@@H]4CCC5C(C)(C)OC(=O)C[C@H]6OO[C@]4(CC[C@]3(C)C12)CC56O (stereo not given in full) | > 100 | – | > 100 | > 100 | > 100 | – | > 100 | – | – |
| CCOC(=O)C1=C(C)N(NC(N)=O)C(C)(O)C12CCOC2=O (stereo not given) | 34.5 | > 100 | > 100 | > 100 | > 100 | > 100 | – | – | – |
| CC1=C(C(=O)Nc2ccc([N+](=O)[O-])cc2)C(c2ccc3c(c2)OCO3)C(C(=O)Nc2ccc([N+](=O)[O-])cc2)=C(C)N1 | > 100 | – | – | 97.4 | > 100 | > 100 | > 100 | – | – |
| O=S1(=O)CS(=O)(=O)OCCO1 | 140 | – | 47.1 | 215 | – | 331 | 436 | 80.3 µM | TGI (P388/ADR leukemia): 91.8 µM; TGI (SN12K1 renal): 92.4 µM; TGI (P388 leukemia): 119 µM |
| COc1ccc(-c2cc(-c3cc(Cl)cc(Br)c3O)[nH]c(=O)n2)cc1 | 64.2 | – | – | 31.1 | 30 | 38.6 | 55.7 | – | – |
| Cc1cccc(N2C(=O)C(=O)C(c3nc4ccccc4s3)/C(=N/NC(=S)NN)C2=O)c1C (stereo not given) | > 100 | > 100 | > 100 | > 100 | > 100 | > 100 | – | – | – |
| CCN(CC)C(=O)N1CCN(C=S)CC1 | > 100 | – | – | > 100 | > 100 | > 100 | > 100 | – | – |
| CC(/C=C/c1ccccc1)=N\NC(N)=S | – | – | – | – | – | – | – | > 100 µM | – |
| COC(=O)C(CBr)CBr | 3.59 | 8.96 | 4.54 | 29.3 | 3.22 | – | – | 9.22 µM | – |
| CC1(C)C=N[N+]2(C)C3C=CC(CC3)C12 (stereo not given) | > 100 | > 100 | – | – | > 100 | > 100 | > 100 | – | – |
| O=C(O)CCc1c2ccc(=O)c(O)c-2oc2c(O)c(O)ccc12 | – | – | – | – | – | – | – | 36.5 µM | – |
| Oc1ccc(CCNCc2cc3c(cc2Br)OCO3)cc1 | – | – | – | – | – | – | – | > 100 µM | – |
| C/C(=N\N=C(\[Se])N(C)C)c1ccccn1 | 15.9 | 74.1 | 20.6 | 5.29 | 13.8 | 12.6 | 12.1 | 26.3 µM | TGI (P388/ADR leukemia): < 0.01 µM; TGI (SN12K1 renal): 13.9 µM; TGI (P388 leukemia): < 0.01 µM |
| Cc1ccn2c(CCc3nnc4cc(C)ccn34)nnc2c1 | – | – | – | – | – | – | – | > 100 µM | – |
| C=CC1(NS(=O)(=O)c2ccc(C)cc2)CCC(C(C)(C)C)CC1 (stereo not given) | > 100 | – | – | > 100 | > 100 | > 100 | > 100 | – | – |
| O=[N+]([O-])c1ccc(/C=C/c2csnn2)cc1 | > 100 | – | – | – | > 100 | – | > 100 | – | – |
| NC(N)=Nc1nc2ccc([N+](=O)[O-])cc2[nH]1 | – | – | – | – | – | – | – | > 100 µM | – |
